The test system of data set [1] is rabbit platelets (PAF-induced serotonin release). In words: PAF-induced release of tritiated serotonin from rabbit platelets. In kind it is cell-based, rabbit (New Zealand White). The note with it: Oryctolagus cuniculus, Platelet, PAF-induced, rabbit platelets. As to the method: (§1) The cellular responses studied include (1) PAF-induced release of preloaded, radiolabeled serotonin from rabbit platelets, (2) PAF-induced degranulation (release of myeloperoxidase) from purified human nuetrophils and (3) PAF-induced adhesion of human neutrophils to latex beads. Each putative antagonist was tested at 30 μM for its effect on each response. Selected compounds were tested in a concentration-response fashion.
Blood is collected from the central ear artery of New Zealand White rabbits into a 1:7 volume of acid citrate dextrose. The blood is centrifuged at 1100 rpm for 20 minutes. The isolated platelet rich plasma (PRP) is then incubated at 37° C. for 30 minutes with 1 μCi^3 H-serotonin binoxalate per ml PRP. Labeled platelets are pelleted by centrifugation at 2800 rpm for 20 minutes. The platelets are then washed in Tyrodes gel buffer without calcium in the presence of 0.1 mM EGTA and again pelleted at 2800 rpm for 20 minutes. This wash process is repeated. The washed platelet pellet is resuspended in Tyrodes gel buffer without calcium and adjusted to a concentration of 1.25×10^9 platelets/ml, as determined from a standard curve of absorbance at 530 num vs platelet concentration.
Polystyrene reaction tubes containing various dilutions of PAF (for standard curve determination) or a single concentration of PAF with and without the subject antagonist in a 0.45 ml volume of Tyrodes gel buffer with calcium each receive a 0.05 ml aliquot of the paltelet preparation. After a 90 second incubation period at room temperature, the reaction is stopped by the addition of 0.02 ml of 9.25 % formaldehyde. The platelets are then pelleted by centrifugation at 2800 rpm for 15 minutes at 4° C.
Aliquots (0.1 ml) of the supernatants are added to 3 ml liquid scintillation fluid in polypropylene vials. The samples are then counted for radioactivity in a liquid scintillation counter. The platelets in one set of reaction tubes containing only buffer and labeled platelets are lysed using 0.01 ml 10% Triton TX, and the total reactivity is determined by liquid scintillation counting. The determined dpm represent the total radioactivity in the labelled platelets. The results for each determination are reported as the percentage release of the total radioactivity in the sample. The extent of PAF antagonist activity is expressed as the percent inhibition of ^3 H-serotonin release compared to that amount released by PAF alone.

In data set [2] the test system is human neutrophils (PAF-induced degranulation). In words: PAF-induced degranulation (myeloperoxidase release) of human neutrophils. The conditions noted are these: Neutrophil, 30 uM. Type of data set: cell-based. The procedure:
as §1
Neutrophils are isolated from human venous blood via a two-step sedimentation procedure, and contaminating erythrocytes are selectively lysed. The neutrophils were preincubated in 0.25% Hanks buffer containing bovine serum albumin (BSA) with 5 ug Cytochalasin B/ ml cells for 5 minutes at 37° C. Neutrophils (4×10^6) are added to stimuli (PAF or buffer control) in the presence and absence of antagonist in Krebs-Ringer buffer to a final volume of 1.0 ml, and incubated at 37° C. for appropriate periods of time. At the end of the reaction period the neutrophils are pelleted by centrifugation at 3000 rpm for 5 minutes at 4° C.
Aliquots (0.2 ml) of the supernatants are added to polysyrene tubes to which are added the following: 0.6 ml)>25% Hanks BSA, 0.5 ml MPO buffer (0.2 M NaPO4, pH 6.2) and to start the color reaction 0.2 ml of a 1:1 v/v 0.05% H2 O2 :1.25 mg/ml dimethoxybenzidine (DMB). The reaction is allowed to run at room temperature for 15 minutes and is stopped by the addition of 0.05 ml 2% sodium azide. The developed color is quantitated in a spectrophotometer at 460 nm. The amount of myeloperoxidase (MPO) released by PAF stimulation can thus be determined. In order to determine the total amount of MPO in the cells an unstimulated control tube of neutrophils is lysed using 0.01 ml 10% Triton TX and the total MPO is determined via the color reaction and spectrophotometer reading. The activity of a given concentration of PAF is expressed as the percentage of the total MPO released. The activity of antagonists at a given concentration is expressed as a percentage of inhibition of PAF-induced MPO released at a single concentration of PAF.

Data set [3] relates to human neutrophils (PAF-induced bead adhesion). In words: PAF-induced adhesion of human neutrophils to latex beads. In kind it is cell-based. The note with it: Neutrophil, albumin-coated latex beads. As to the method:
as §1
Latex bead suspension (0.6 ml; 10% aqueous suspension; particle diameter=1u) is pipeted into a 1.5 ml eppendorf centrifuge tube. The beads are pelleted by centrifugation, the supernatant is discarded and the beads are washed 2 times with 1 ml 0.9% saline. To the pelleted beads is added 0.5 ml 20 mg/ml human serum albunim (HSA) in Krebs-Ringer buffer.
Allow bed-albumin mixture to sit at room temperature for 10 minutes, centrifuge for 1 minute and remove the supernatant, and wash albumin-coated beads 3 times with saline. Resuspend the beads in 1 ml of Krebs-Ringer.
Human neutrophils are prepared as described for the neutrophil degranulation assay and 10^7 cells are added to 0.3 ml of Krebs-Ringerin the presence and absence of PAF and putative antagonist and are incubated at 37° for an appropriate period of time.
The albumin-coated beads are then added in 0.05 ml to give a final bead concentration of 1% v/v, resulting in a bead to neutrophil ratio of 100:1. The tubes containing cells and beads are then placed in an agitating water bath at 37° C. and 120 oscillation per minute for 10 minutes. The reaction is stopped by adding an equal volume of 2.5% glutaraldehyde in saline. The reaction tubes are allowed to stand at room temperature for 30 minutes. The cells are then washed 3 times (with centrifugation at 1000 rpm for 5 minutes) with saline to remove the unadhered latex beads and resuspended in 0.3 ml saline.
Wet mounts are prepared and adherence is examined by light microscopy at 400x. […] Activity of the antagonists is expressed as the percent inhibition of PAF-induced adherence.

Data set [4] can be described thus: Stability of free base solution on exposure to air (tlc). Type of data set: physicochemical. The note with it: 1 h exposure to air. The procedure: 1-(3,4-Dimethoxybenzyl)-6-methyl-3,4-dihydroisoquinoline (D2). Amide D1 (24.7 g, 0.079 mol) and 850 ml of tetrachloroethane was distilled to remove 50 ml of solvent. This solution was added to a solution of 90 g (0.63 mol) of P2 O5 in HMDSO which was heated at 115°. The reaction mixture was heated at 155°-170° for 5 h at which time the reaction appeared complete by tlc. To the cooled reaction mixture was added over 1 h a solution of 100 g of NaOH in 1 l of water under nitrogen with stirring. The organic layer was separated and filtered through a pad of MgSO4. One-half of the tetrachloroethane solution was partially evaporated and […] hydrochloric acid (25 ml) wa added. The resulting mixture was evaporated to dryness. The residue was twice treated with EtOH (100 ml) and evaporated to dryness. The residue was washed with two 100 ml portions of ether and taken up to 100 ml of acetone and evaporated to give a foam. The foam was washed with ethyl acetate (60 ml) and dissolved in 75 ml of i-PrOH, treated with charcoal, filtered and boiled down to 50 ml. The solution deposited 3.4 g of 1-(3,4-dimethoxybenzyl)-6-methyl-3, 4-dihydroisoquinoline hydrochloride after storing overnight at 4°. Dilution of the mother liquor with ethyl acetate and ether gave another 2.9 g to raise the yield to 6.3 g (48% based on one-half of crude product purified).

Experimental findings from patent USRE34630E, “Substituted isoquinolines and methods of using same” (Euroceltique, S.A., priority 1992, dated 1994) are described below.

SMILES strings stand for the structures.

What is called inhibition is the percentage by which the read-out fell short of the control. For the compound `COc1ccc(CC2=NCCc3cc(C)ccc32)cc1OC` [Compound D2, 1-(3,4-Dimethoxybenzyl)-6-methyl-3,4-dihydroisoquinoline], the inhibition at 30 µM in data set [1] (read-out: Platelet Serotonin Release % Inhibition at 30 uM, 30 uM) stood at 70%; in data set [2] it was 17%; in data set [3] it was 23%. Moreover, the IC50 in data set [1] (read-out: Platelet Serotonin Release I50) amounted to 5.6 µM. Moreover, in data set [4], the “Decomposition of free base in solution by tlc” value is “extensive decomposition”.
